The text below walks through data of paper PMC9352624, “Going deeper into the toxicokinetics of synthetic cannabinoids: in vitro contribution of human carboxylesterases” (Archives of Toxicology, 2022).

For data set [1], the target named is T1, hCES1c (Homo sapiens, UniProt P23141).
T1 sequence (P23141 18-566 isoform P23141-3 limits assumed): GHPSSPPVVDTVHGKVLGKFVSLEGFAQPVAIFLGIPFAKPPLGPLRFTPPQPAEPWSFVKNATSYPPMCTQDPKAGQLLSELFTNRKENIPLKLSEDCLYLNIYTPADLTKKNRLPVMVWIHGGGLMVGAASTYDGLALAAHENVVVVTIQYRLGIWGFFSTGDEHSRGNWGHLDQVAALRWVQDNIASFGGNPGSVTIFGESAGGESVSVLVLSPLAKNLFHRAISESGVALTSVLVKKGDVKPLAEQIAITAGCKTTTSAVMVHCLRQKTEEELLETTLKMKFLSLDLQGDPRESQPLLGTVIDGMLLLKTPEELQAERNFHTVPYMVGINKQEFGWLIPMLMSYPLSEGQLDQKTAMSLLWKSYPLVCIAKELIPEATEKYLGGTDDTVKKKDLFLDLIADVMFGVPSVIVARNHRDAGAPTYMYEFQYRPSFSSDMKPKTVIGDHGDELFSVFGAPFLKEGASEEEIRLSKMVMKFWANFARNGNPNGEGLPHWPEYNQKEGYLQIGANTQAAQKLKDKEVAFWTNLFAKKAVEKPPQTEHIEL
The experiment in a line: Initial activity screening with recombinant hCES1c. The settings on record: 100 µM substrate, 30 min, 37 °C, 0.2 µg/µL protein, LC–ITMS; for Relative amount of hydrolysis metabolite formed, hCES1c: mean n = 2.

For data set [2], the target named is T2, hCES1b (Homo sapiens, UniProt P23141).
T2 sequence (P23141 18-567): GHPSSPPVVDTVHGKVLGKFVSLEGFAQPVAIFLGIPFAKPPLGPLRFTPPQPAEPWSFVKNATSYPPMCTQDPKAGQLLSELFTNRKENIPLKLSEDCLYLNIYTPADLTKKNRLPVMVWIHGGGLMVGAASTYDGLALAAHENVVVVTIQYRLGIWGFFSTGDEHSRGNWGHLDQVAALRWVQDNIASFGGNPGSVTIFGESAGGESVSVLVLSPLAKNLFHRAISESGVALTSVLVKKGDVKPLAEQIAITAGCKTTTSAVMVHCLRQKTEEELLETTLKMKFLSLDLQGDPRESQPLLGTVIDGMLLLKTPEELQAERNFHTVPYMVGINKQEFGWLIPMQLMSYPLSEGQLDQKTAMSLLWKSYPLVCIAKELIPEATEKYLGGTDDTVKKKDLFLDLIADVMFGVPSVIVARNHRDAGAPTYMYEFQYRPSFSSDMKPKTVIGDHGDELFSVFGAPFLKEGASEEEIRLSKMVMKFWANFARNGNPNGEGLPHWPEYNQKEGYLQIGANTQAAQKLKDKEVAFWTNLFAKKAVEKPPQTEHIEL
Nature of the data set: Initial activity screening with recombinant hCES1b. The settings on record: 100 µM substrate, 30 min, 37 °C, 0.2 µg/µL protein, LC–ITMS; for Relative amount of hydrolysis metabolite formed, hCES1b: mean n = 2.

The target of data set [3] is T1, hCES1c. Nature of the data set: Enzyme kinetic studies of ester hydrolysis with hCES1c. As to conditions: for Clint (relative in vitro intrinsic clearance), hCES1c: Clint = Vmax/Km; for Vmax (relative), ester hydrolysis by hCES1c: ± S.D., peak area ratio metabolite/internal standard.
The next data set deals with T3, hCES2 (Homo sapiens, UniProt O00748).
T3 sequence (O00748 27-559): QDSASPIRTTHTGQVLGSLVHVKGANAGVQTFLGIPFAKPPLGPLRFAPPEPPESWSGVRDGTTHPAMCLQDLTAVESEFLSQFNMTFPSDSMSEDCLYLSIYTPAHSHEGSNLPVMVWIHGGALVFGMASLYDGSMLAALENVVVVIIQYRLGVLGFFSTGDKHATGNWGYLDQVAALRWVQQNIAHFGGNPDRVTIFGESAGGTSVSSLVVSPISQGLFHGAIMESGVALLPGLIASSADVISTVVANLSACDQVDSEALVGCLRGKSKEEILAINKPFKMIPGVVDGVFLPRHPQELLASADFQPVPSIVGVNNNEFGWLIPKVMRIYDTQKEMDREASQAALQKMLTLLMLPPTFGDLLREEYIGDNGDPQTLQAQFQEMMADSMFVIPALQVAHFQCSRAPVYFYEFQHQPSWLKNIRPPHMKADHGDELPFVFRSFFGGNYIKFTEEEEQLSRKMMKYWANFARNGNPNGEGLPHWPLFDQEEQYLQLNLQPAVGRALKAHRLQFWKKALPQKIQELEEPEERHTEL
Nature of the data set: Initial activity screening with recombinant hCES2. The settings on record: 100 µM substrate, 30 min, 37 °C, 0.2 µg/µL protein, LC–ITMS; for Relative amount of hydrolysis metabolite formed, hCES2: mean n = 2.

Data set [4] in a line: Initial activity screening with pooled human liver S9 fraction. As to conditions: 100 µM substrate, 30 min, 37 °C, 2 µg/µL protein, LC–ITMS, mean n = 2.
Data set [5] in a line: Initial activity screening with pooled human liver microsomes. As to conditions: 100 µM substrate, 30 min, 37 °C, 2 µg/µL protein, LC–ITMS, mean n = 2. Background: Microsomes from liver hold many membrane-bound enzymes, among them those of drug oxidation.
The target of data set [6] is T2, hCES1b. The experiment in a line: Enzyme kinetic studies of ester hydrolysis with hCES1b. The settings on record: for Clint (relative in vitro intrinsic clearance), hCES1b: Clint = Vmax/Km; for Vmax (relative), ester hydrolysis by hCES1b: peak area ratio metabolite/internal standard.

“And” between values parts separate entries of the source, which are not always exact repeats. Equal values may be shown once.

Usually Km stands for the concentration of substrate that gives half-maximal velocity.

Consider `C=CCCCn1cc(C(=O)N[C@H](C(=O)OC)C(C)C)c2ccccc21` [MMB-4en-PICA, methyl (1-(pent-4-en-1-yl)-1H-indole-3-carbonyl)-L-valinate], for which, on hCES1c [1], the “Hydrolysis of carboxamide linker, hCES1c” value was “−”; the “Hydrolysis of carboxamide/ester in head group, hCES1c” value is “+”; the “Relative amount of hydrolysis metabolite formed, hCES1c” value (shortened to “Relative amount … hCES1c”) was 5.7%. Also, on hCES1b [2], the “Hydrolysis of carboxamide linker, hCES1b” value is “−”; the “Hydrolysis of carboxamide/ester in head group, hCES1b” value is given as “+”; the “Relative amount of hydrolysis metabolite formed, hCES1b” value (“Relative amount … hCES1b” below) amounted to 1.5%. At hCES1c [3], the “Clint (relative in vitro intrinsic clearance), hCES1c” value turned out to be 0.04 AU/min/mg/µM; the “Vmax (relative), ester hydrolysis by hCES1c” value is 7.57 AU/min/mg and 7.57 ± 0.42 AU/min/mg. Moreover, at hCES2, the “Hydrolysis of carboxamide linker, hCES2” value was “−”; the “Hydrolysis of carboxamide/ester in head group, hCES2” value is given as “+”; the “Relative amount of hydrolysis metabolite formed, hCES2” value was 0.2%. The “Relative amount of hydrolysis metabolite formed, pHLS9” value in data set [4] came out at 11%.

`CC(C)(C)C(NC(=O)c1nn(CC2CCCCC2)c2ccccc12)C(=O)O` (centres unmarked) [DMBA-CHMINACA, 2-[1-(cyclohexylmethyl)-1H-indazole-3-carboxamido]-3,3-dimethylbutanoic acid]: the “Hydrolysis of carboxamide linker, hCES1c” value on hCES1c [1] is “−”. Moreover, the “Hydrolysis of carboxamide linker, hCES1b” value on hCES1b [2] is on record as “−”. Moreover, the “Hydrolysis of carboxamide linker, hCES2” value at hCES2 is reported as “−”.

`O=C(NC12CC3CC(CC(C3)C1)C2)c1nn(CC2CCCCC2)c2ccccc12` [A-CHMINACA, 1-cyclohexylmethyl-N-tricyclo[3.3.1.13,7]dec-1-yl-1H-indazole-3-carboxamide]: on hCES1c [1], the “Hydrolysis of carboxamide linker, hCES1c” value is “−”. Moreover, the “Hydrolysis of carboxamide linker, hCES1b” value at hCES1b [2] was “−”. Further, on hCES2, the “Hydrolysis of carboxamide linker, hCES2” value is reported as “−”.

Turning to `COC(=O)[C@@H](NC(=O)c1nn(CCCCF)c2ccccc12)C(C)(C)C` [MDMB-4F-BINACA, methyl (2S)-2-[1-(4-fluorobutyl)-1H-indazole-3-carbonyl]amino-3,3-dimethylbutanoate], on hCES1c [1], the “Hydrolysis of carboxamide linker, hCES1c” value is “−”; the “Hydrolysis of carboxamide/ester in head group, hCES1c” value was “+”; the “Relative amount … hCES1c” value is listed as “below 1%”. For the same compound, at hCES1b [2], the “Hydrolysis of carboxamide linker, hCES1b” value is given as “−”; the “Hydrolysis of carboxamide/ester in head group, hCES1b” value was “+”; the “Relative amount … hCES1b” value is reported as “below 1%”. In addition, the “Hydrolysis of carboxamide linker, hCES2” value at hCES2 was “−”. The “Relative amount of hydrolysis metabolite formed, pHLM” value in data set [5] turned out to be 4.3%. Besides, the “Relative amount of hydrolysis metabolite formed, pHLS9” value in data set [4] was “around 1%”.

For `CC(C)[C@H](NC(=O)c1cn(CCCCCF)c2ncccc12)C(N)=O` [AB-5F-P7AICA, (S)-N-(1-amino-3-methyl-1-oxobutan-2-yl)-1-(5-fluoropentyl)-1H-pyrrolo[2,3-b]pyridine-3-carboxamide], on hCES1c [1], the “Hydrolysis of carboxamide linker, hCES1c” value was “−” and the “Hydrolysis of carboxamide/ester in head group, hCES1c” value is given as “−”. For the same compound, at hCES1b [2], the “Hydrolysis of carboxamide linker, hCES1b” value was “−” and the “Hydrolysis of carboxamide/ester in head group, hCES1b” value was “−”. At hCES2, the “Hydrolysis of carboxamide linker, hCES2” value was “−” and the “Hydrolysis of carboxamide/ester in head group, hCES2” value was “−”.

For the compound `COC(=O)C(Cc1ccccc1)NC(=O)c1cn(CCCCCF)c2ccccc12` [MPhP-5F-PICA, methyl (1-(5-fluorpentyl)-1H-indole-3-carbonyl)-L-phenylalaninate], the “Clint (relative in vitro intrinsic clearance), hCES1b” value at hCES1b [6] worked out at 2.0 AU/min/mg/µM. Besides, the “Vmax (relative), ester hydrolysis by hCES1b” value at hCES1b [6] (± S.D.) is 182 AU/min/mg and 182 ± 13 AU/min/mg. In addition, at hCES1c [1], the “Hydrolysis of carboxamide linker, hCES1c” value is “−”; the “Hydrolysis of carboxamide/ester in head group, hCES1c” value was “+”; the “Relative amount … hCES1c” value is reported as 20%. Further, at hCES1b [2], the “Hydrolysis of carboxamide linker, hCES1b” value was “−”; the “Hydrolysis of carboxamide/ester in head group, hCES1b” value is given as “+”; the “Relative amount … hCES1b” value is 19%. Also, at hCES1c [3], the “Clint (relative in vitro intrinsic clearance), hCES1c” value worked out at 3.2 AU/min/mg/µM; the “Vmax (relative), ester hydrolysis by hCES1c” value was 73.6 AU/min/mg and 73.6 ± 3.8 AU/min/mg. Further, on hCES2, the “Hydrolysis of carboxamide linker, hCES2” value is given as “−”; the “Hydrolysis of carboxamide/ester in head group, hCES2” value was “+”; the “Relative amount of hydrolysis metabolite formed, hCES2” value was found to be 2.1%.

With `CC(C)[C@H](NC(=O)c1cc(-c2ccc(F)cc2)nn1CCCCCF)C(N)=O` [3,5-AB-5F-FUPPYCA, N-[(1S)-1-(aminocarbonyl)-2-methylpropyl]-1-(5-fluoropentyl)-3-(4-fluorophenyl)-1H-pyrazole-5-carboxamide], on hCES1c [1], the “Hydrolysis of carboxamide linker, hCES1c” value was “−” and the “Hydrolysis of carboxamide/ester in head group, hCES1c” value is “−”. For the same compound, on hCES1b [2], the “Hydrolysis of carboxamide linker, hCES1b” value was “−” and the “Hydrolysis of carboxamide/ester in head group, hCES1b” value is on record as “−”. Also, at hCES2, the “Hydrolysis of carboxamide linker, hCES2” value was “−” and the “Hydrolysis of carboxamide/ester in head group, hCES2” value is “−”.

Consider `CC(C)C(NC(=O)c1nn(CC2CCCCC2)c2ccccc12)C(=O)O` (centres unmarked) [MBA-CHMINACA, 2-[1-(cyclohexylmethyl)-1H-indazole-3-carboxamido]-3-methylbutanoic acid], for which the “Hydrolysis of carboxamide linker, hCES1c” value on hCES1c [1] is given as “−”. For the same compound, the “Hydrolysis of carboxamide linker, hCES1b” value at hCES1b [2] was “−”. Moreover, the “Hydrolysis of carboxamide linker, hCES2” value at hCES2 was “−”.

Turning to `COC(=O)[C@@H](NC(=O)c1cn(CCCCCF)c2ccccc12)C(C)(C)C` [MDMB-5F-PICA, methyl (2S)-2-{[1-(5-fluoropentyl)-1H-indole-3-carbonyl]amino}-3,3-dimethylbutanoate], on hCES1c [1], the “Hydrolysis of carboxamide linker, hCES1c” value is given as “−” and the “Hydrolysis of carboxamide/ester in head group, hCES1c” value is listed as “−”. On hCES1b [2], the “Hydrolysis of carboxamide linker, hCES1b” value is listed as “−” and the “Hydrolysis of carboxamide/ester in head group, hCES1b” value was “−”. Besides, on hCES2, the “Hydrolysis of carboxamide linker, hCES2” value was “−”.

As to “N-[(2S)-1-amino-3,3-dimethyl-1-oxobutan-2-yl]-1-(cyclohexylmethyl)-1H-indole-3-carboxamide [MMB-CHMICA]”, on hCES1b [6], the “Clint (relative in vitro intrinsic clearance), hCES1b” value was 0.53 AU/min/mg/µM. In addition, the Km at hCES1b [6] (read-out: Km, ester hydrolysis by hCES1b, ± S.D., Michaelis–Menten fit, conditions of Table 1) stood at 39.3 ± 12 µM. Further, the “Vmax (relative), ester hydrolysis by hCES1b” value at hCES1b [6] (± S.D.) was 20.8 AU/min/mg and 20.8 ± 2.2 AU/min/mg. Besides, on hCES1c [1], the “Hydrolysis of carboxamide linker, hCES1c” value is recorded as “−”; the “Hydrolysis of carboxamide/ester in head group, hCES1c” value was “+”; the “Relative amount … hCES1c” value was determined as 2.3%. On hCES1b [2], the “Hydrolysis of carboxamide linker, hCES1b” value was “−”; the “Hydrolysis of carboxamide/ester in head group, hCES1b” value is “+”; the “Relative amount … hCES1b” value is 14%. Moreover, the “Hydrolysis of carboxamide linker, hCES2” value on hCES2 is “−”. The “Relative amount of hydrolysis metabolite formed, pHLM” value in data set [5] turned out to be 25%.
